Measured values taken from patent US20250090614A1, “COMPOSITIONS AND METHODS FOR IMPROVING LUNG FUNCTION” (priority 2023, published 2025).

Columns and labels:
Assay type in all cases: in vivo, mouse
Details in all cases: aged C57BL/6 mice, 25 mg/kg p.o. each substance, 90 days
Laminin = Laminin ELISA in lung tissue supernatant of aged mice
Method: The experiments were performed in old C57b1/6 mice (28-30 weeks). Table 1 discloses the groups of mice used for the experimentation. C57BL/6 mice were bred and naturally aged in a pathogen-free colony. Mice were group-housed six per cage for the treatment regimen and maintained on a 12-hr light-dark schedule with ad libitum access to food and water. All experiments were designed according to the principles of animal use for gerontological research (Miller, R. A., & Nadon, N. L. (2000). Principles of animal use for gerontological research. Journals of Gerontology. Series A, Biological Sciences and Medical Sciences, 55, B117-B123) [table] The above test substances were administered to the mice for a period of 90 days. Rapamycin was used as a positive control. After 90 days of administration experiments were performed to assess the respiratory muscle function, anatomical changes, cellular senescence and immunological changes. Hyperinflation of the lungs may occur with ageing along with destruction of lung parenchyma or loss of supporting structures within the lung parenchyma (Gillooly M, Lamb D. Airspace size in lungs of lifelong non-smokers: effect of age and sex. Thorax. 1993; 48:39-43). […] Laminin was measured using commercially available ELISA Kit (AbCam ELISA Kit) according to the user's manual provided. […]

old C57b1/6 mice = experiment: Minute ventilation by whole-body plethysmography in aged mice
Method: The experiments were performed in old C57b1/6 mice (28-30 weeks). Table 1 discloses the groups of mice used for the experimentation. C57BL/6 mice were bred and naturally aged in a pathogen-free colony. Mice were group-housed six per cage for the treatment regimen and maintained on a 12-hr light-dark schedule with ad libitum access to food and water. All experiments were designed according to the principles of animal use for gerontological research (Miller, R. A., & Nadon, N. L. (2000). Principles of animal use for gerontological research. Journals of Gerontology. Series A, Biological Sciences and Medical Sciences, 55, B117-B123) [table] The above test substances were administered to the mice for a period of 90 days. […] The respiratory muscle function in the study animals was assessed by estimating the Tidal Volume, Minute ventilation, Transdiaphragmatic pressure ([…]) and Respiratory rate. […] In the present study, ventilatory parameters were measured in awake mice during eupnoea (spontaneous breathing of room air) using a whole-body plethysmography system. […] Recordings were taken after 10 min of acclimatization and recorded for one hour. Recorded parameters included tidal volume and minute ventilation Minute ventilation-Minute ventilation is the amount of air inhaled or exhaled from a person's lungs in one minute is an important measurement that's related to tidal volume. […]

mTOR = mTOR ELISA in lung tissue homogenate of aged mice
Method: The experiments were performed in old C57b1/6 mice (28-30 weeks). Table 1 discloses the groups of mice used for the experimentation. C57BL/6 mice were bred and naturally aged in a pathogen-free colony. Mice were group-housed six per cage for the treatment regimen and maintained on a 12-hr light-dark schedule with ad libitum access to food and water. All experiments were designed according to the principles of animal use for gerontological research (Miller, R. A., & Nadon, N. L. (2000). Principles of animal use for gerontological research. Journals of Gerontology. Series A, Biological Sciences and Medical Sciences, 55, B117-B123) [table] The above test substances were administered to the mice for a period of 90 days. Rapamycin was used as a positive control. After 90 days of administration experiments were performed to assess the respiratory muscle function, anatomical changes, cellular senescence and immunological changes. Activation of AMPK delays senescence. Abnormal autophagy and aging promote each other, and AMPK is an important regulator of this process. AMPK is involved in the transduction of several aging-related signaling pathways. AMPK intervenes in the development of many age-related diseases. […] These events contribute to the pathogenesis of age-related disorders.

With `O=C(/C=C/c1ccc(O)c(O)c1)O[C@H](Cc1ccc(O)c(O)c1)C(=O)O` [Rosmarinic acid] the expression of laminin (Laminin) was “increased”, the minute ventilation (old C57b1/6 mice; versus old mice control) was “increase” and the “minute ventilation, comparison between treatment groups” value (old C57b1/6 mice; Rapamycin 8 mg/kg p.o. positive control) was “better improvement than control, and Rapamycin”. The “expression of mTOR” value (mTOR) was “decreased”.
